# Source: ChEMBL document CHEMBL4507319 (2021)
# Columns and labels:
# [1] = system: Epidermal growth factor receptor (Homo sapiens), P00533 [UNDEFINED MUTATION]; details: Compound concentration 1000.0 nM
# [2] = target: T1, Serine/threonine-protein kinase D1 (Homo sapiens) (UniProt Q15139); details: Compound concentration 1000.0 nM
# T1 sequence (whole entry): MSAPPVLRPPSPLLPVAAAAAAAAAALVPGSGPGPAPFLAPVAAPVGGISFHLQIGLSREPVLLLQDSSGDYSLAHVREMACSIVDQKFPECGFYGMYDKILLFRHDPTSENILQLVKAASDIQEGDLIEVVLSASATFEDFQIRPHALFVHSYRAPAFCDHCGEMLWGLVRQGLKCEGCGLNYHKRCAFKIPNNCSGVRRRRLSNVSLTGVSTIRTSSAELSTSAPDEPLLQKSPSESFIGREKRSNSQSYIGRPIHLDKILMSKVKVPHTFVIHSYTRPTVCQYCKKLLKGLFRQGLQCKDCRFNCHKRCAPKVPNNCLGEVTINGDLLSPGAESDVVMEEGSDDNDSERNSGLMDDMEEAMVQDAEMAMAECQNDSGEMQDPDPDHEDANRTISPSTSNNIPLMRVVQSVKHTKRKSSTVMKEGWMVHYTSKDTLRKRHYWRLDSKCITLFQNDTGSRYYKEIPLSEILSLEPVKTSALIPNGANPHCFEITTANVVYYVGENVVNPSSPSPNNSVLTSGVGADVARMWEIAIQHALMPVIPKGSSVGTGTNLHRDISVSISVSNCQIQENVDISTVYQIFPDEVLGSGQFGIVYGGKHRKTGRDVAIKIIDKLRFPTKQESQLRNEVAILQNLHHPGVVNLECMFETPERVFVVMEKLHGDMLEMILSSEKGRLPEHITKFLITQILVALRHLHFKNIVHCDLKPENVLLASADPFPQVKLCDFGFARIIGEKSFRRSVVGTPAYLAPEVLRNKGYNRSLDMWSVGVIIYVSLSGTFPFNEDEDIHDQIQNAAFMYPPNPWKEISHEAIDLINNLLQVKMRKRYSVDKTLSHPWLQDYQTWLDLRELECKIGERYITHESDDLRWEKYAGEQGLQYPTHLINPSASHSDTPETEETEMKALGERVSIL
# [3] = target: LIM domain kinase 2 (Homo sapiens) (UniProt P53671); details: Compound concentration 1000.0 nM
# [4] = target: D(1B) dopamine receptor (Homo sapiens) (UniProt P21918); details: Compound concentration 10.0 uM
# [5] = target: Serine/threonine-protein kinase 32B (Homo sapiens) (UniProt Q9NY57); details: Compound concentration 1000.0 nM
# [6] = target: T2, Homeodomain-interacting protein kinase 4 (Homo sapiens) (UniProt Q8NE63); details: Compound concentration 1000.0 nM
# T2 sequence (whole entry): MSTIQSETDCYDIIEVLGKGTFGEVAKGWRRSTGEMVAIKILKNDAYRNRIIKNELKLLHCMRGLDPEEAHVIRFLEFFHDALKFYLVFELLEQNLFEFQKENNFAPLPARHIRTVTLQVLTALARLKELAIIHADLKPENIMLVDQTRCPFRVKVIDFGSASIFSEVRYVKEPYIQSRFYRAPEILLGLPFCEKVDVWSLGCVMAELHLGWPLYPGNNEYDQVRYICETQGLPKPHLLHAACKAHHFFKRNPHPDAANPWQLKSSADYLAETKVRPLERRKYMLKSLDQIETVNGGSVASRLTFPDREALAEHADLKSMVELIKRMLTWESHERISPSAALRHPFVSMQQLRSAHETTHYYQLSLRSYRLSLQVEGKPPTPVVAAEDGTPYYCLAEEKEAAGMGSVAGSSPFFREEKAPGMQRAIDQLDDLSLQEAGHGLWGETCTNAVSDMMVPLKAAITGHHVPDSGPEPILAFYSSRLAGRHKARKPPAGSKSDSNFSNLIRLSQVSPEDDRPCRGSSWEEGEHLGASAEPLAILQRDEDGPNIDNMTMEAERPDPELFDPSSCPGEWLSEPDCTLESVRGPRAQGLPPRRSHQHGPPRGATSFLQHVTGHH
# [7] = target: Dual specificity protein kinase CLK1 (Homo sapiens) (UniProt P49759); details: Compound concentration 1000.0 nM
# [8] = target: Dual specificity protein kinase CLK4 (Homo sapiens) (UniProt Q9HAZ1); details: Compound concentration 1000.0 nM
# [9] = system: Receptor-type tyrosine-protein kinase FLT3 (Homo sapiens), P36888 [D835V]; details: Compound concentration 1000.0 nM
# [10] = system: Receptor-type tyrosine-protein kinase FLT3 (Homo sapiens), P36888 [UNDEFINED MUTATION]; details: Compound concentration 1000.0 nM
# [11] = system: Receptor-type tyrosine-protein kinase FLT3 (Homo sapiens), P36888 [R834Q]; details: Compound concentration 1000.0 nM
# Dual specificity protein kinase CLK4 (Homo sapiens), sequence (Q9HAZ1 whole entry, looked up): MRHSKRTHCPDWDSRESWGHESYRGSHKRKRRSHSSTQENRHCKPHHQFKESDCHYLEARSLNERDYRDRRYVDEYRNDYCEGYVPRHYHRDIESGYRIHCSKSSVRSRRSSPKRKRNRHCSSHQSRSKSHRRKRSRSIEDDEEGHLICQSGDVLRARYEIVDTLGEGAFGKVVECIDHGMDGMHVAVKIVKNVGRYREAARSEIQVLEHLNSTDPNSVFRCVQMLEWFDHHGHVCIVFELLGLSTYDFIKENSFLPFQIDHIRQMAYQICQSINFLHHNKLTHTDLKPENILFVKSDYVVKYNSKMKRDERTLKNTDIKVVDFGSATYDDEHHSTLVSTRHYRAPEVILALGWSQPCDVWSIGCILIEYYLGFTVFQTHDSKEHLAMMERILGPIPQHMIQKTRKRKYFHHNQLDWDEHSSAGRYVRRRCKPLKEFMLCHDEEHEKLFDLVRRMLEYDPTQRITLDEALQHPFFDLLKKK
# Dual specificity protein kinase CLK1 (Homo sapiens), sequence (P49759 whole entry, looked up): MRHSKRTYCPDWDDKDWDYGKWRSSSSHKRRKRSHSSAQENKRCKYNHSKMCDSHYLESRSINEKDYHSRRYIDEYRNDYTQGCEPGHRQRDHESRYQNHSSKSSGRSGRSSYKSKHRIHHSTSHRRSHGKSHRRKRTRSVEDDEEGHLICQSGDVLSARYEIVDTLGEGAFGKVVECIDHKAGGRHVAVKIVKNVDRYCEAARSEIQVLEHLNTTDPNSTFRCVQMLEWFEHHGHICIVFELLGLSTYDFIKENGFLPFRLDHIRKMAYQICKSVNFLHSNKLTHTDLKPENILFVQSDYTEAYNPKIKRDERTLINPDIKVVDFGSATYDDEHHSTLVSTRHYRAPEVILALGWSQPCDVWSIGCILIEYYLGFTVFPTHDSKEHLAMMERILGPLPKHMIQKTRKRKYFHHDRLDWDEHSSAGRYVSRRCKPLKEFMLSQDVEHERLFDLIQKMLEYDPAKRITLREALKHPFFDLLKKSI
# LIM domain kinase 2 (Homo sapiens), sequence (P53671 whole entry, looked up, the tested form may be a part): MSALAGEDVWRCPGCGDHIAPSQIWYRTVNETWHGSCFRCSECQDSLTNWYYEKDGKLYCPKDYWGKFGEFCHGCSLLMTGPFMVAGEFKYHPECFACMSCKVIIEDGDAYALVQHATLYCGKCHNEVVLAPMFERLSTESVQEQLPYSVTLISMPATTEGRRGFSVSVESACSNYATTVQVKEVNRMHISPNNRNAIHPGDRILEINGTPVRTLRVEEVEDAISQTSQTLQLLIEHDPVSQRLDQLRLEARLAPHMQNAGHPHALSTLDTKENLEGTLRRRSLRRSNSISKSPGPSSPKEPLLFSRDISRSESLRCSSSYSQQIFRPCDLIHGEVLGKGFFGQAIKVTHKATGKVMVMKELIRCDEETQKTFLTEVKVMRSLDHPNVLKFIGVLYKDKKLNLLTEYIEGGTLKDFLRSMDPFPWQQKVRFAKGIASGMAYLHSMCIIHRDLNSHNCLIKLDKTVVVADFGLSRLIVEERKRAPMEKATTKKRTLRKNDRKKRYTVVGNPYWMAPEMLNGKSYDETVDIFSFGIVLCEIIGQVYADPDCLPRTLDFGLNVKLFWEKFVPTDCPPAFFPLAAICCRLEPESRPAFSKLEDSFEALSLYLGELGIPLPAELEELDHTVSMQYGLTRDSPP
# Serine/threonine-protein kinase 32B (Homo sapiens), sequence (Q9NY57 whole entry): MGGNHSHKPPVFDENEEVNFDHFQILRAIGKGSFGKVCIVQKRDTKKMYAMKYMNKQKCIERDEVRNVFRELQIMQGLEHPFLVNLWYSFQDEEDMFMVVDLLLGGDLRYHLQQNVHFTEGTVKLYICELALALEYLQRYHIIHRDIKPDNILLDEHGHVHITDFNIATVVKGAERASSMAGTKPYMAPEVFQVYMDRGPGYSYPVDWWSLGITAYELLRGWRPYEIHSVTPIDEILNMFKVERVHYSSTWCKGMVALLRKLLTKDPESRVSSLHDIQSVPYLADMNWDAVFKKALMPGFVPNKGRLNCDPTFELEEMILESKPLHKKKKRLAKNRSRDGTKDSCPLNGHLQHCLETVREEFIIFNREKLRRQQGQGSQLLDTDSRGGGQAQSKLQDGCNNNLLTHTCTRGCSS
# Epidermal growth factor receptor (Homo sapiens), P00533 [UNDEFINED MUTATION], sequence (P00533 whole entry, looked up, change not shown): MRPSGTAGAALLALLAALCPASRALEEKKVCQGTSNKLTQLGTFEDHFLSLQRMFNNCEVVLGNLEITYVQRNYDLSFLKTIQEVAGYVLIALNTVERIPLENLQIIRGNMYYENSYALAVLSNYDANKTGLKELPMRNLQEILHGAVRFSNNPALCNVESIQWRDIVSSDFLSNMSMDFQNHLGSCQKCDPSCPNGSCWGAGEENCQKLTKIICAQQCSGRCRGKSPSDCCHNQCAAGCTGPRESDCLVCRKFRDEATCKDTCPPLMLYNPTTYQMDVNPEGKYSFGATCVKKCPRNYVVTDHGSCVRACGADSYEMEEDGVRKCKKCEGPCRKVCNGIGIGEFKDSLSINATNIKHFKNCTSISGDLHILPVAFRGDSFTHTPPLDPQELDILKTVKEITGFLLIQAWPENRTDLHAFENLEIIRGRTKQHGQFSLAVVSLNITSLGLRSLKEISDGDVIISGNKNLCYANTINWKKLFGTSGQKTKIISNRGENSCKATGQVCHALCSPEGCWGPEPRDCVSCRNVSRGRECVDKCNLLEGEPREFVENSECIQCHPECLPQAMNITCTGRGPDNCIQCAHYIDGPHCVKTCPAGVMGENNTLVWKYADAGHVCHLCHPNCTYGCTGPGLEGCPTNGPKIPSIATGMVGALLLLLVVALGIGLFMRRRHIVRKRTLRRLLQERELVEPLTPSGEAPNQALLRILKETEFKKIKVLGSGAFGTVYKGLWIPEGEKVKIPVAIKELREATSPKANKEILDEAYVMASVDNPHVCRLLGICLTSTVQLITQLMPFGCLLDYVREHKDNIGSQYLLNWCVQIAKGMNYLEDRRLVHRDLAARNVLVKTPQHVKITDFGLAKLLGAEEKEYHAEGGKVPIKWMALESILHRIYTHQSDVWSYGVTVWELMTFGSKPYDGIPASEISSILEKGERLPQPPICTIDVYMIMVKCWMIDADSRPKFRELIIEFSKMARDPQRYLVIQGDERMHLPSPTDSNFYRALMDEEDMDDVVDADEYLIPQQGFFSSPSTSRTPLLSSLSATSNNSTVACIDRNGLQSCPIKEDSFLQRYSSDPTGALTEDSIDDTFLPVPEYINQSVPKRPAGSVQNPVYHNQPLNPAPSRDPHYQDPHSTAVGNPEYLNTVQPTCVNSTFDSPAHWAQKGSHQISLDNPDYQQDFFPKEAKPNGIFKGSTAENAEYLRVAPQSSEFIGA
# D(1B) dopamine receptor (Homo sapiens), sequence (P21918 whole entry): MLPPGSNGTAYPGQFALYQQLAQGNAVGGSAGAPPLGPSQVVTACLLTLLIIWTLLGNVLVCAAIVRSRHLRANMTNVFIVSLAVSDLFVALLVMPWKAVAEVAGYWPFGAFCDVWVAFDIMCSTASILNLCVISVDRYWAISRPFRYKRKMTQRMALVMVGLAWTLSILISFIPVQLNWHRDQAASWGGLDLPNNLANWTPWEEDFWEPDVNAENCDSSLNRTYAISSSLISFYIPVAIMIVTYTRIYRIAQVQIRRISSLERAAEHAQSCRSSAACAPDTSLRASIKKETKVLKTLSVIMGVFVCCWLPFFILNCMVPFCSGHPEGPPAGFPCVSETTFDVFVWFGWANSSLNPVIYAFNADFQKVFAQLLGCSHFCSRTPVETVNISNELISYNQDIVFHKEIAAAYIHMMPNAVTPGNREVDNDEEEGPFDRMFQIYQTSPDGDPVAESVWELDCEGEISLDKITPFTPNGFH
Structure (SMILES),residual activity [1] [%],residual activity [2] [%],residual activity [3] [%],inhibition [4] [%],residual activity [5] [%],residual activity [6] [%],residual activity [7] [%],residual activity [8] [%],residual activity [9] [%],residual activity [10] [%],residual activity [11] [%]
CCc1ccccc1C(=O)Nc1n[nH]c2c(C)c(F)c(C3C(C#N)=C(C)N(C)C(C)=C3C#N)cc12 [BAY-3827],100,100,99,8.47,98,100,84,100,3.2,12,89
CC1=C(C#N)C(c2ccc3c(c2)c(NC(=O)c2ccccc2C)nn3C)C(C#N)=C(C)N1 [BAY-974],93,92,99,14.6,100,80,87,76,90,76,90
